Data from patent US11414454B2, “Compositions, methods, and systems for affinity-based protein identification and purification” (Auctus Biologies, Inc., priority 2017, dated 2022).

Tested on: RPtag (large)
Experiment: Association/dissociation kinetics of RPtag (small) peptides with RPtag (large) by fluorescence anisotropy
Assay type: binding, Thermoanaerobacter tengcongensis
Settings: for koff: LS dissociation, unlabeled competitor peptide; for kon (M^−1 min^−1 ) (×10^7): S*-LS transition, calculated from measured koff and Kd
Protocol: Panel a depicts representative association rate kinetics traces varying native RPtag small. Rhodamine labeled RPtag small at the indicated concentration was incubated with unlabeled RPtag large and the association measured by fluorescence anisotropy. L-S complex concentration was calculated by the equation (r−rmin)/(rmax−rmin)*[S] where r is the measured anisotropy, rmin is the anisotropy in the absence of any RPtag large, rmax is the anisotropy measured in the presence of at saturating RPtag large, and [S] is the total concentration of RPtag small used in the experiment. […] Dashed cyan lines are simulations of the mechanism shown in f using the rate constants detailed herein. The concentrations in the simulations were multiplied by a correction factor of 0.925, which is well within the 90% purity specification of the purchased peptide.
LS complex was performed by incubating 1000 nM RPtag large with the indicated concentrations of rhodamine labeled RPtag small. At the start of the experiment, 0.1 mM unlabeled native RPtag small was added and fluorescence anisotropy monitored. Data processing was done as in panel a, except the red fits were to the single exponential decay equation y=y0+A*exp(−b*t). As expected, the initial dissociation rates were linear with respect to the LS complex.
Fitting to a line yields a rate constant (koff)=0.0091 min^−1 (FIG. 9 panel e). In good agreement, when the kinetics are fit with a first order rate law, a rate constant of 0.012±0.002 min^−1 (n=15) was observed. […] Panel e is a graph of the initial rates of the traces represented in d. Slope of the fit line is 0.0091 min^−1. Data are mean±SE (n=3).
The library of mutant RPtag(small) peptides, described above, was next analyzed to measure off rates (koff). The on rate was also calculated from measured koff and Kd (S*-LS transition), except instead of using unlabeled native peptide as the competitor, we used unlabeled Nd2,P5A,E18A (the tightest binding RPtag(small) peptide identified). […] However, there were notable exceptions. […] This indicates, without wishing to be limited, that P5 may constrain the structure of the peptide. The increased flexibility imparted to the peptide by the P5A mutation may decrease the energy barrier required for binding/unbinding.

Chain of RPtag (large) (as listed by the source): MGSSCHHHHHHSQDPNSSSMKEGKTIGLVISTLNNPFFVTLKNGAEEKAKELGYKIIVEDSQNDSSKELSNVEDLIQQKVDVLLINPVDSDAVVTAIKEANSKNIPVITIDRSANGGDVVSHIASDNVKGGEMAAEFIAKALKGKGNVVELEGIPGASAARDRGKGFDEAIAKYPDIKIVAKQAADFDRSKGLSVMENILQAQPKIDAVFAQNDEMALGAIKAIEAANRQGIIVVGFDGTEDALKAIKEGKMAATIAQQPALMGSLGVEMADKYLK

For AELKLITKENVQ [Nd9], the “koff” value was 0.00667 ± 0.00067 s⁻¹ and the “kon (M^−1 min^−1 ) (×10^7)” value was 8.2 ± 0.9 ×10^7 M^−1 min^−1.
In the case of AIANFIPAELKLITKENVQ [Nd2, k3a, p5a], the “koff” value is reported as 0.00015 ± 6.7e-06 s⁻¹.
In the case of EKIPNFIPAELKLITKENVQ [Nd1], the “koff” value is reported as 0.000147 ± 1.7e-06 s⁻¹ and the “kon (M^−1 min^−1 ) (×10^7)” value is reported as 3.4 ± 0.1 ×10^7 M^−1 min^−1.
For ELKLIT [Nd10, Cd5], the “koff” value was over 0.033 s⁻¹.
For ELKLITKA [Nd10, Cd3, e18a], the “koff” value was over 0.033 s⁻¹.
ELKLITKE [Nd10, Cd3] was tested, and the “koff” value was over 0.033 s⁻¹.
ELKLITKENVQ [Nd10] was tested, and the “koff” value was 0.00417 ± 0.00067 s⁻¹ and the “kon (M^−1 min^−1 ) (×10^7)” value was 4.3 ± 0.7 ×10^7 M^−1 min^−1.
With FIPAELKLITKA [Nd6, Cd3, e18a] the “koff” value was over 0.033 s⁻¹.
In the case of FIPAELKLITKE [Nd6, Cd3], the “koff” value is reported as over 0.033 s⁻¹.
For FIPAELKLITKENVQ [Nd6], the “koff” value was 0.00108 ± 5e-05 s⁻¹ and the “kon (M^−1 min^−1 ) (×10^7)” value was 12 ± 1 ×10^7 M^−1 min^−1.
GEAIPNFIPAELKLITKENVQ [k3a] was tested, and the “koff” value was 8.83e-05 ± 1.2e-05 s⁻¹ and the “kon (M^−1 min^−1 ) (×10^7)” value was 1.1 ± 0.1 ×10^7 M^−1 min^−1.
GEKAPNFIPAELKLITKENVQ [i4a] was tested, and the “koff” value was 0.0001 ± 3.3e-06 s⁻¹.
In the case of GEKIANFIPAELKLITKENVQ [p5a], the “koff” value is reported as 0.0004 ± 3.3e-05 s⁻¹.
In the case of GEKIPAFIPAELKLITKENVQ [n6a], the “koff” value is reported as 2.5e-05 ± 5e-06 s⁻¹ and the “kon (M^−1 min^−1 ) (×10^7)” value is reported as 0.45 ± 0.09 ×10^7 M^−1 min^−1.
GEKIPNAIPAELKLITKENVQ [f7a] was tested, and the “koff” value was 0.00105 ± 5e-05 s⁻¹ and the “kon (M^−1 min^−1 ) (×10^7)” value was 3.1 ± 0.1 ×10^7 M^−1 min^−1.
With GEKIPNFAPAELKLITKENVQ [i8a] the “koff” value was 0.0015 ± 0.00015 s⁻¹ and the “kon (M^−1 min^−1 ) (×10^7)” value was 8.6 ± 0.9 ×10^7 M^−1 min^−1.
GEKIPNFIAAELKLITKENVQ [p9a] was tested, and the “koff” value was 4e-05 ± 6.7e-06 s⁻¹ and the “kon (M^−1 min^−1 ) (×10^7)” value was 1.4 ± 0.2 ×10^7 M^−1 min^−1.
GEKIPNFIPAALKLITKENVQ [e11a] was tested, and the “koff” value was 0.000112 ± 8.3e-06 s⁻¹ and the “kon (M^−1 min^−1 ) (×10^7)” value was 0.46 ± 0.06 ×10^7 M^−1 min^−1.
With GEKIPNFIPAEAKLITKENVQ [l12a] the “koff” value was 0.00333 ± 0.001 s⁻¹ and the “kon (M^−1 min^−1 ) (×10^7)” value was 4.3 ± 1.2 ×10^7 M^−1 min^−1.
With GEKIPNFIPAELKAITKENVQ [l14a] the “koff” value was over 0.033 s⁻¹.
For GEKIPNFIPAELKL [Cd7], the “koff” value was over 0.033 s⁻¹.
For GEKIPNFIPAELKLATKENVQ [i15a], the “koff” value was 0.0183 ± 0.005 s⁻¹ and the “kon (M^−1 min^−1 ) (×10^7)” value was 25 ± 6 ×10^7 M^−1 min^−1.
GEKIPNFIPAELKLI [Cd6] was tested, and the “koff” value was over 0.033 s⁻¹.
For GEKIPNFIPAELKLIAKENVQ [t16a], the “koff” value was 0.00148 ± 5e-05 s⁻¹ and the “kon (M^−1 min^−1 ) (×10^7)” value was 7.5 ± 0.3 ×10^7 M^−1 min^−1.
For GEKIPNFIPAELKLIT [Cd5], the “koff” value was 0.0065 ± 0.00383 s⁻¹ and the “kon (M^−1 min^−1 ) (×10^7)” value was 11 ± 7 ×10^7 M^−1 min^−1.
With GEKIPNFIPAELKLITAENVQ [k17a] the “koff” value was 9.5e-05 ± 3.3e-06 s⁻¹ and the “kon (M^−1 min^−1 ) (×10^7)” value was 1.0 ± 0.1 ×10^7 M^−1 min^−1.
GEKIPNFIPAELKLITK [Cd4] was tested, and the “koff” value was 0.00367 ± 0.00033 s⁻¹ and the “kon (M^−1 min^−1 ) (×10^7)” value was 22 ± 2 ×10^7 M^−1 min^−1.
GEKIPNFIPAELKLITKE [Cd3] was tested, and the “koff” value was 0.002 ± 0.00033 s⁻¹.
For GEKIPNFIPAELKLITKEN [Cd2], the “kon (M^−1 min^−1 ) (×10^7)” value was 9.8 ± 0.3 ×10^7 M^−1 min^−1.
In the case of IANFIPAELKLITKANVQ [Nd3, p5a, e18a], the “koff” value is reported as 0.000967 ± 3.3e-05 s⁻¹ and the “kon (M^−1 min^−1 ) (×10^7)” value is reported as 9.2 ± 0.4 ×10^7 M^−1 min^−1.
In the case of IPAELKLITKENVQ [Nd7], the “koff” value is reported as 0.0007 ± 0.000167 s⁻¹ and the “kon (M^−1 min^−1 ) (×10^7)” value is reported as 1.8 ± 0.4 ×10^7 M^−1 min^−1.
With IPNFIPAELKLITKENVQ [Nd3] the “koff” value was 0.0002 ± 1.7e-05 s⁻¹ and the “kon (M^−1 min^−1 ) (×10^7)” value was 8.8 ± 0.3 ×10^7 M^−1 min^−1.
KIANFIPAELKLITK [Nd2, Cd4, p5a] was tested, and the “koff” value was 0.003 ± 0.00017 s⁻¹ and the “kon (M^−1 min^−1 ) (×10^7)” value was 22 ± 1 ×10^7 M^−1 min^−1.
KIANFIPAELKLITKA [Nd2, Cd3, p5a, e18a] was tested, and the “koff” value was 0.003 ± 0.00017 s⁻¹ and the “kon (M^−1 min^−1 ) (×10^7)” value was 33 ± 2 ×10^7 M^−1 min^−1.
In the case of “KIANFIPAELKLITKANAA [Nd2, p5a, e18a, v20a, q21a]”, the “koff” value is reported as 0.000217 ± 1.7e-05 s⁻¹ and the “kon (M^−1 min^−1 ) (×10^7)” value is reported as 20 ± 1 ×10^7 M^−1 min^−1.
With KIANFIPAELKLITKE [Nd2, Cd3, p5a] the “kon (M^−1 min^−1 ) (×10^7)” value was 26 ± 1 ×10^7 M^−1 min^−1.
With KIPNFIPAELKLITK [Nd2, Cd4] the “koff” value was 0.00132 ± 0.0001 s⁻¹ and the “kon (M^−1 min^−1 ) (×10^7)” value was 20 ± 2 ×10^7 M^−1 min^−1.
With KIPNFIPAELKLITKA [Nd2, Cd3, e18a] the “koff” value was 0.000883 ± 3.3e-05 s⁻¹ and the “kon (M^−1 min^−1 ) (×10^7)” value was 40 ± 2 ×10^7 M^−1 min^−1.
For “KIPNFIPAELKLITKANAA [Nd2, e18a, v20a, q21a]”, the “koff” value was 0.000383 ± 1.7e-05 s⁻¹ and the “kon (M^−1 min^−1 ) (×10^7)” value was 3.6 ± 0.3 ×10^7 M^−1 min^−1.
For KIPNFIPAELKLITKANVQ [Nd2, e18a], the “koff” value was 0.000138 ± 1.67e-05 s⁻¹ and the “kon (M^−1 min^−1 ) (×10^7)” value was 6.5 ± 0.7 ×10^7 M^−1 min^−1.
With KIPNFIPAELKLITKE [Nd2, Cd3] the “koff” value was 0.000767 ± 3.3e-05 s⁻¹ and the “kon (M^−1 min^−1 ) (×10^7)” value was 8.2 ± 0.3 ×10^7 M^−1 min^−1.
In the case of KIPNFIPAELKLITKENVQ [Nd2], the “koff” value is reported as 5.83e-05 ± 1.3e-05 s⁻¹ and the “kon (M^−1 min^−1 ) (×10^7)” value is reported as 5.3 ± 1.3 ×10^7 M^−1 min^−1.
KLITKENVQ [Nd12] was tested, and the “koff” value was over 0.033 s⁻¹.
With LITKENVQ [Nd13] the “koff” value was over 0.033 s⁻¹.
In the case of LKLITKENVQ [Nd11], the “koff” value is reported as 0.02 ± 0.01 s⁻¹ and the “kon (M^−1 min^−1 ) (×10^7)” value is reported as 7.1 ± 3.8 ×10^7 M^−1 min^−1.
For NFIPAELKLITKENVQ [Nd5], the “koff” value was 0.000933 ± 1.7e-05 s⁻¹ and the “kon (M^−1 min^−1 ) (×10^7)” value was 9.6 ± 0.1 ×10^7 M^−1 min^−1.
PAELKLITKA [Nd8, Cd3, e18a] was tested, and the “koff” value was over 0.033 s⁻¹.
With PAELKLITKE [Nd8, Cd3] the “koff” value was over 0.033 s⁻¹.
For PAELKLITKENVQ [Nd8], the “koff” value was 0.000917 ± 3.3e-05 s⁻¹ and the “kon (M^−1 min^−1 ) (×10^7)” value was 9.3 ± 0.3 ×10^7 M^−1 min^−1.
In the case of PNFIPAELKLITKENVQ [Nd4], the “koff” value is reported as 0.000467 ± 1.7e-05 s⁻¹ and the “kon (M^−1 min^−1 ) (×10^7)” value is reported as 9.4 ± 0.4 ×10^7 M^−1 min^−1.
In the case of “RIANFIPAELKLITKANVQ [Nd2, k3r, p5a, e18a]”, the “koff” value is reported as 0.000217 ± 1.7e-05 s⁻¹ and the “kon (M^−1 min^−1 ) (×10^7)” value is reported as 3.4 ± 0.1 ×10^7 M^−1 min^−1.
